Among the data in patent publication US12570671B2 (BRISTOL-MYERS SQUIBB COMPANY, priority 2020, dated 2026) are DC50 values, retold here.

The target of experiment [1] is Ikaros (Homo sapiens, UniProt Q13422+Q96SW2). The experiment is described as follows: Helios Cellular Degradation Assay (Ikaros readout). It counts as cell-based. Also on record: endogenous in cells; host or cells: Jurkat. The conditions noted are these: Jurkat cells, 72 h incubation, Ikaros-Alexa488 antibody staining, flow cytometry; read-out: Ikaros Jurkat IC50. The method, boiled down: (§1)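 Jurkat cells (80,000/well, RPMI+10% FBS) were treated with compound for 72 h at 37° C. After fixation and permeabilization they were stained with fluorescent antibodies to Helios, Ikaros and Aiolos. Intracellular protein levels were quantified by flow cytometry.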
Chain of Ikaros (Q13422 whole entry): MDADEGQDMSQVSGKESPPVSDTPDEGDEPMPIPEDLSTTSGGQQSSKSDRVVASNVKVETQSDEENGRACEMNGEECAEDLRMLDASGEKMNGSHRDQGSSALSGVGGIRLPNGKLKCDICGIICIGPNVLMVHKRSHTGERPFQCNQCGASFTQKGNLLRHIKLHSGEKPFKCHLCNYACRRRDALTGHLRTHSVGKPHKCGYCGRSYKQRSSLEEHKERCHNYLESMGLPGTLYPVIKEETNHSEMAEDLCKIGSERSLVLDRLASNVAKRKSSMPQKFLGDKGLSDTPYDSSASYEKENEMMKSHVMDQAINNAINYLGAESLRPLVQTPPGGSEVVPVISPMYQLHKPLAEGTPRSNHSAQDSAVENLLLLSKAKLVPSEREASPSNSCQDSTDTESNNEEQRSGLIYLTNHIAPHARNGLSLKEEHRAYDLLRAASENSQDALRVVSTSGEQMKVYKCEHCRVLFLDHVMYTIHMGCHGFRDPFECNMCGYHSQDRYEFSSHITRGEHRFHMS
Chain of Ikaros (Q96SW2 whole entry): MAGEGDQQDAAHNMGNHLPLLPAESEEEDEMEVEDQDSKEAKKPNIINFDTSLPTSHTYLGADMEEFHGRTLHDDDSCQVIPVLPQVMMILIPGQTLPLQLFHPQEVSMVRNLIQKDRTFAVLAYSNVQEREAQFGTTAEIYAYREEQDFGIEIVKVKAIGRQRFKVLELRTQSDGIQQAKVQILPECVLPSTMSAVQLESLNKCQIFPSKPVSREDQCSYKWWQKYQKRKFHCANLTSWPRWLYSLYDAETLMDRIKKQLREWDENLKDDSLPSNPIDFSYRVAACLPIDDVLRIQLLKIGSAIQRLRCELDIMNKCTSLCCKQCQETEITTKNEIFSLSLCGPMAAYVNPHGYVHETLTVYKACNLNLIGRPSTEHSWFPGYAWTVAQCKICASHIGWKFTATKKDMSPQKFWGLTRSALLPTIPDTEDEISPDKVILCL
Chain of Ikaros (Q16531 whole entry partner): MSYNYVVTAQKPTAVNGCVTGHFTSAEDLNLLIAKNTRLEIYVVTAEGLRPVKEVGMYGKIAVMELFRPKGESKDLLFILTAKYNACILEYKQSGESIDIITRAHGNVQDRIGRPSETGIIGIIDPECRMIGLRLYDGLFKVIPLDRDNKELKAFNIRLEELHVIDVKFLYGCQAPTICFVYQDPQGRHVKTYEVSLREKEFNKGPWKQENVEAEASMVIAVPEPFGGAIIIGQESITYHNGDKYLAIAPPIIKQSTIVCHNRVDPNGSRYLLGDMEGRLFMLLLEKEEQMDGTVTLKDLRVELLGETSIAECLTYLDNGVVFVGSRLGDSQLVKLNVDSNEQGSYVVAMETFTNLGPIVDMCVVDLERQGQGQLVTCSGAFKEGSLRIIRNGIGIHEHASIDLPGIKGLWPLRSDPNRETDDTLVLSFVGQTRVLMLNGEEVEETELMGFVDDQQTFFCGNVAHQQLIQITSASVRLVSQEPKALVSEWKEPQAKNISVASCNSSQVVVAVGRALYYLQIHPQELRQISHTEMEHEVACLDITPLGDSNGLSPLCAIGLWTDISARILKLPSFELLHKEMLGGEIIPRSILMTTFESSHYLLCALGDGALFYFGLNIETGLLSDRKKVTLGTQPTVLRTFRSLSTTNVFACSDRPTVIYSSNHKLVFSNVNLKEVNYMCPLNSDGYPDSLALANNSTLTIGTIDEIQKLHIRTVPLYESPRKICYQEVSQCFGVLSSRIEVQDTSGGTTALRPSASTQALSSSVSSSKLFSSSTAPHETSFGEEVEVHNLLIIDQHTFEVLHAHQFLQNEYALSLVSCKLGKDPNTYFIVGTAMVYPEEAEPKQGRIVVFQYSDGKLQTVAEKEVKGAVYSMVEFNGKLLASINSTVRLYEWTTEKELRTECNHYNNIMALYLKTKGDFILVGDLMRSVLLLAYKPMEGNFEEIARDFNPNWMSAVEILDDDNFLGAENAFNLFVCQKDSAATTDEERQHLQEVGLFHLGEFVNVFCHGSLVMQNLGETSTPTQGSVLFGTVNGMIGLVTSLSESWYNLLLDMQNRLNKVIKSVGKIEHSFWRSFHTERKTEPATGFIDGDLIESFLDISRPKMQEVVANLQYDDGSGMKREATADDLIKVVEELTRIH

The target in experiment [2] is Helios (Homo sapiens, UniProt Q96SW2+Q9UKS7). Description: Helios Cellular Degradation Assay (Helios readout). Details: endogenous in cells; host or cells: Jurkat. The experiment is classed as cell-based. To be noted: Jurkat cells, 72 h incubation, Helios-PE antibody staining, flow cytometry; read-out: Helios Jurkat IC50. The method, boiled down:
as §1

Chain of Helios (Q9UKS7 whole entry): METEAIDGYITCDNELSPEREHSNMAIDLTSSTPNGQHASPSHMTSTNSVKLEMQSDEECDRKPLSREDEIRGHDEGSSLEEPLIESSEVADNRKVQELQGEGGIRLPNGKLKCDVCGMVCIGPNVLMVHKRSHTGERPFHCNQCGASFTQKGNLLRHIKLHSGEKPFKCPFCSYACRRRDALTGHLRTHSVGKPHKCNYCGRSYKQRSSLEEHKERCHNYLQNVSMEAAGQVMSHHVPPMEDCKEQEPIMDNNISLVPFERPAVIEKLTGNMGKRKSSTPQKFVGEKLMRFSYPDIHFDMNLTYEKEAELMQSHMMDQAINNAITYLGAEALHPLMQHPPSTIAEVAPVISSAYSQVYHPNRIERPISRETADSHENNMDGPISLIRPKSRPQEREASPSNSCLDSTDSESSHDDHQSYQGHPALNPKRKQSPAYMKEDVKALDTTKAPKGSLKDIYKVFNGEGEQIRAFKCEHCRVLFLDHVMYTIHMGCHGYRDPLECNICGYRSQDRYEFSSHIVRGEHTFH
Chain of Helios (Q96SW2 whole entry): as the sequence (Q96SW2 whole entry) above
Chain of Helios (Q16531 whole entry partner): as the sequence (Q16531 whole entry partner) above

`Nc1nc(-c2ccc3c(c2)CN(C2CCC(=O)NC2=O)C3=O)cc2c1CCCC2` (stereo not shown) [Example 150, 3-(5-(1-amino-5,6,7,8-tetrahydroisoquinolin-3-yl)-1-oxoisoindolin-2-yl)piperidine-2,6-dione]: the DC50 in experiment [1] was ≥ 10000 nM; in experiment [2] it was 32 nM.
Consider `Cc1cc(-c2ccc3c(c2)CN(C2CCC(=O)NC2=O)C3=O)nc(N)c1C` (stereo not shown) [Example 151, 3-(5-(6-amino-4,5-dimethylpyridin-2-yl)-1-oxoisoindolin-2-yl)piperidine-2,6-dione], for which the DC50 was ≥ 10000 nM in experiment [1] and 10 nM in experiment [2].
For the compound `Cc1cc(-c2ccc3c(c2)CN(C2CCC(=O)NC2=O)C3=O)ncc1C#N` (stereo not shown) [Example 152, 6-(2-(2,6-dioxopiperidin-3-yl)-1-oxoisoindolin-5-yl)-4-methylnicotinonitrile], the values for the DC50 in experiment [1] and in experiment [2] were ≥ 10000 nM and 760 nM, respectively.
Take `COc1c(C)cc(-c2ccc3c(c2)CN(C2CCC(=O)NC2=O)C3=O)nc1N` (stereo not shown) [Example 153, 3-(5-(6-amino-5-methoxy-4-methylpyridin-2-yl)-1-oxoisoindolin-2-yl)piperidine-2,6-dione]: the values for the DC50 in experiment [1] and in experiment [2] were ≥ 10000 nM and 70 nM, respectively.
With `COc1cccc(-c2ccc3c(c2)CN(C2CCC(=O)NC2=O)C3=O)n1` (stereo not shown) [Example 155, 3-[5-(6-Methoxypyridin-2-yl)-1-oxo-2,3-dihydro-1H-isoindol-2-yl]piperidine-2,6-dione], the figures for the DC50 in experiment [1] and in experiment [2] were ≥ 20000 nM and 5330 nM, respectively.
On to `COc1nc(-c2ccc3c(c2)CN(C2CCC(=O)NC2=O)C3=O)cc2ccccc12` (stereo not shown) [Example 156, 3-[5-(1-Methoxyisoquinolin-3-yl)-1-oxo-2,3-dihydro-1H-isoindol-2-yl]piperidine-2,6-dione], for which the DC50 in experiment [1] was ≥ 20000 nM; in experiment [2] it was 500 nM.
For `O=C1CCC(N2Cc3cc(-c4cc5ccccc5c(=O)[nH]4)ccc3C2=O)C(=O)N1` (stereo not shown) [Example 157, 3-[1-Oxo-5-(1-oxo-1,2-dihydroisoquinolin-3-yl)-2,3-dihydro-1H-isoindol-2-yl]piperidine-2,6-dione], the DC50 in experiment [1] is ≥ 20000 nM; in experiment [2], 110 nM.
Consider `O=C1CCC(N2Cc3cc(-c4cc5c(ccn5Cc5ccccc5)cn4)ccc3C2=O)C(=O)N1` (stereo not shown) [Example 158, 3-(5-{1-Benzyl-1H-pyrrolo[3,2-c]pyridin-6-yl}-1-oxo-2,3-dihydro-1H-isoindol-2-yl) piperidine-2,6-dione], for which the DC50 was ≥ 10000 nM in experiment [1] and 20 nM in experiment [2].
As for `O=C1CCC(N2Cc3cc(-c4cc5[nH]ccc5cn4)ccc3C2=O)C(=O)N1` (stereo not shown) [Example 159, 3-(1-oxo-5-(1H-pyrrolo[3,2-c]pyridin-6-yl)isoindolin-2-yl)piperidine-2,6-dione], the DC50 in experiment [1] was found to be 320 nM; in experiment [2], 50 nM.
`O=C1CCC(N2Cc3cc(-c4nccc5[nH]ccc45)ccc3C2=O)C(=O)N1` (stereo not shown) [Example 160, 3-(1-oxo-5-(1H-pyrrolo[3,2-c]pyridin-4-yl)isoindolin-2-yl)piperidine-2,6-dione]: the DC50 in experiment [1] is ≥ 20000 nM; in experiment [2] it was 70 nM.
Regarding `O=C1CCC(N2Cc3cc(-c4nccc5c4ccn5Cc4ccccc4)ccc3C2=O)C(=O)N1` (stereo not shown) [Example 161, 3-(5-(1-benzyl-1H-pyrrolo[3,2-c]pyridin-4-yl)-1-oxoisoindolin-2-yl)piperidine-2,6-dione], the figures for the DC50 in experiment [1] and in experiment [2] were 90 nM and 20 nM, respectively.
For the compound `N#Cc1cccc(-c2ccc3c(c2)CN(C2CCC(=O)NC2=O)C3=O)n1` (stereo not shown) [Example 162, 6-(2-(2,6-dioxopiperidin-3-yl)-1-oxoisoindolin-5-yl)picolinonitrile], the DC50 was ≥ 20000 nM in experiment [1] and 2460 nM in experiment [2].
As to `Nc1cc(C(F)(F)F)cc(-c2ccc3c(c2)CN(C2CCC(=O)NC2=O)C3=O)n1` (stereo not shown) [Example 163, 3-(5-(6-amino-4-(trifluoromethyl)pyridin-2-yl)-1-oxoisoindolin-2-yl)piperidine-2,6-dione], the DC50 is ≥ 20000 nM in experiment [1] and 90 nM in experiment [2].
On to `COc1cc(N)nc(-c2ccc3c(c2)CN(C2CCC(=O)NC2=O)C3=O)c1` (stereo not shown) [Example 164, 3-(5-(6-amino-4-methoxypyridin-2-yl)-1-oxoisoindolin-2-yl)piperidine-2,6-dione], for which the DC50 is ≥ 20000 nM in experiment [1] and 40 nM in experiment [2].
As to `Nc1cc(Cl)cc(-c2ccc3c(c2)CN(C2CCC(=O)NC2=O)C3=O)n1` (stereo not shown) [Example 165, 3-(5-(6-amino-4-chloropyridin-2-yl)-1-oxoisoindolin-2-yl)piperidine-2,6-dione], the DC50 in experiment [1] is ≥ 20000 nM; in experiment [2], 30 nM.
For `N#Cc1ccc(-c2ccc3c(c2)CN(C2CCC(=O)NC2=O)C3=O)nc1N` (stereo not shown) [Example 166, 2-amino-6-(2-(2,6-dioxopiperidin-3-yl)-1-oxoisoindolin-5-yl)nicotinonitrile] the same measures were ≥ 20000 nM and 20 nM.
As for `CC(=O)Nc1nc(-c2ccc3c(c2)CN(C2CCC(=O)NC2=O)C3=O)cc(C)c1C` (stereo not shown) [Example 167, N-(6-(2-(2,6-dioxopiperidin-3-yl)-1-oxoisoindolin-5-yl)-3,4-dimethylpyridin-2-yl) acetamide], the DC50 in experiment [1] was > 10000 nM; in experiment [2], 50 nM.
Take `CCCc1cc(N)nc(-c2ccc3c(c2)CN(C2CCC(=O)NC2=O)C3=O)c1C#N` (stereo not shown) [Example 173, 6-amino-2-(2-(2,6-dioxopiperidin-3-yl)-1-oxoisoindolin-5-yl)-4-propylnicotinonitrile]: the DC50 is ≥ 10000 nM in experiment [1] and 120 nM in experiment [2].
Take `CC(C)c1cc(-c2ccc3c(c2)CN(C2CCC(=O)NC2=O)C3=O)nc(N)c1C#N` (stereo not shown) [Example 178, 2-amino-6-(2-(2,6-dioxopiperidin-3-yl)-1-oxoisoindolin-5-yl)-4-isopropylnicotinonitrile]: the DC50 in experiment [1] was ≥ 10000 nM; in experiment [2], 70 nM.
Take `CC(C)c1cc(N)nc(-c2ccc3c(c2)CN(C2CCC(=O)NC2=O)C3=O)c1C#N` (stereo not shown) [Example 179, 6-amino-2-(2-(2,6-dioxopiperidin-3-yl)-1-oxoisoindolin-5-yl)-4-isopropylnicotinonitrile]: the DC50 in experiment [1] and in experiment [2] was ≥ 10000 nM each time.
As to `Cc1cc(C#N)c(-c2ccc3c(c2)CN(C2CCC(=O)NC2=O)C3=O)nc1N` (stereo not shown) [Example 180, 6-amino-2-(2-(2,6-dioxopiperidin-3-yl)-1-oxoisoindolin-5-yl)-5-methylnicotinonitrile], the DC50 in experiment [1] was ≥ 10000 nM; in experiment [2] it was 20 nM.
As for `COc1cc(C#N)c(N)nc1-c1ccc2c(c1)CN(C1CCC(=O)NC1=O)C2=O` (stereo not shown) [Example 181, 2-amino-6-(2-(2,6-dioxopiperidin-3-yl)-1-oxoisoindolin-5-yl)-5-methoxynicotinonitrile], the DC50 in experiment [1] is ≥ 10000 nM; in experiment [2], 140 nM.
With `N#Cc1cc(C2CC2)c(N)nc1-c1ccc2c(c1)CN(C1CCC(=O)NC1=O)C2=O` (stereo not shown) [Example 182, 6-amino-5-cyclopropyl-2-(2-(2,6-dioxopiperidin-3-yl)-1-oxoisoindolin-5-yl) nicotinonitrile], the DC50 in experiment [1] is ≥ 10000 nM; in experiment [2], 70 nM.
Taken in the same sequence, the figures for `N#Cc1cc(C2CC2)c(-c2ccc3c(c2)CN(C2CCC(=O)NC2=O)C3=O)nc1N` (stereo not shown) [Example 183, 2-amino-5-cyclopropyl-6-(2-(2,6-dioxopiperidin-3-yl)-1-oxoisoindolin-5-yl) nicotinonitrile] were ≥ 10000 nM and 50 nM.
In the case of `Nc1cc(N2CCN(Cc3ccccc3)CC2)cc(-c2ccc3c(c2)CN(C2CCC(=O)NC2=O)C3=O)n1` (stereo not shown) [Example 184, 3-(5-(6-amino-4-(4-benzylpiperazin-1-yl)pyridin-2-yl)-1-oxoisoindolin-2-yl) piperidine-2,6-dione], the DC50 in experiment [1] and in experiment [2] was ≥ 10000 nM throughout.
With `CS(=O)(=O)N1CCN(c2cc(N)nc(-c3ccc4c(c3)CN(C3CCC(=O)NC3=O)C4=O)c2)CC1` (stereo not shown) [Example 185, 3-(5-(6-amino-4-(4-(methylsulfonyl)piperazin-1-yl)pyridin-2-yl)-1-oxoisoindolin-2-yl) piperidine-2,6-dione], the DC50 in experiment [1] is ≥ 10000 nM; in experiment [2], 6400 nM.
For the compound `CC(=O)N1CCN(c2cc(N)nc(-c3ccc4c(c3)CN(C3CCC(=O)NC3=O)C4=O)c2)CC1` (stereo not shown) [Example 186, 3-(5-(4-(4-acetylpiperazin-1-yl)-6-aminopyridin-2-yl)-1-oxoisoindolin-2-yl)piperidine-2,6-dione], the DC50 in experiment [1] and in experiment [2] was ≥ 10000 nM throughout.
Take `CNc1cc(C)cc(-c2ccc3c(c2)CN(C2CCC(=O)NC2=O)C3=O)n1` (stereo not shown) [Example 187, 3-(5-(4-Methyl-6-(methylamino)pyridin-2-yl)-1-oxoisoindolin-2-yl)piperidine-2,6-dione]: the DC50 in experiment [1] was ≥ 10000 nM; in experiment [2], 10 nM.
Taken in the same sequence, the figures for `CCNc1cc(C)cc(-c2ccc3c(c2)CN(C2CCC(=O)NC2=O)C3=O)n1` (stereo not shown) [Example 188, 3-(5-(6-(Ethylamino)-4-methylpyridin-2-yl)-1-oxoisoindolin-2-yl)piperidine-2,6-dione] were ≥ 10000 nM and 40 nM.
